Results taken from patent US4755385A, “Oral pharmaceutical preparations containing 9-deoxo-11-deoxy-9,11-[imino[2-(2-methoxyethoxy)-ethylidene]-oxy]-(9S)-e rythromycin” (priority 1985, dated 1988).
Read-outs that look alike come from different tables or passages of the source.

Tests used:
[1] = DE-A1-2,515,075; particularly when given dissolved, e.g. intravenously; cited from earlier work
[2] = Stability of the active substance as a function of pH (% intact substance)

SMILES | antibacterial activity [1] | stability in acidic media / gastric juices ([2]; gastric juices (pH 1.0 to 2.0)) | remaining at 0.5 h ([2]; pH 1) [%] | remaining at 0.5 h ([2]; pH 6) [%] | remaining at 0.5 h ([2]; pH 6.5) [%] | remaining at 0.5 h ([2]; pH 7) [%] | remaining at 0.5 h ([2]; pH 7.5) [%] | remaining at 0.5 h ([2]; pH 8) [%] | chemical stability around pH 5.5 ([2]; pH around 5.5) | chemical stability around pH 5.5 | remaining at 0.5 h ([2]; pH 1.3) [%] | remaining at 1 h ([2]; pH 1.3) [%] | remaining at 0.5 h ([2]; pH 4.5) [%] | remaining at 1 h ([2]; pH 4.5) [%] | remaining at 0.5 h ([2]; pH 5.5) [%] | remaining at 1 h ([2]; pH 5.5) [%]
CC[C@H]1OC(=O)[C@H](C)[C@@H](O[C@H]2C[C@@](C)(OC)[C@@H](O)[C@H](C)O2)[C@H](C)[C@@H](O[C@@H]2O[C@H](C)C[C@H](N(C)C)[C@H]2O)[C@](C)(O)C[C@@H](C)[C@@H]2NC(COCCOC)O[C@H]([C@H]2C)[C@]1(C)O (stereo partly drawn) [AS-E 136, 9-deoxo-11-deoxy-9,11-[imino[2-(2-methoxyethoxy)-ethylidene]oxy]-(9S)-erythromycin] | particularly good antibacterial activity | usually destroyed in a short time | 10 | 20 | 20 | 50 | 80 | 95 | retains its susceptibility to hydrolysis unchanged | – | – | – | – | – | – | –
CC[C@H]1OC(=O)[C@H](C)[C@@H](O[C@H]2C[C@@](C)(OC)[C@@H](O)[C@H](C)O2)[C@H](C)[C@@H](O[C@@H]2O[C@H](C)C[C@H](N(C)C)[C@H]2O)[C@](C)(O)C[C@@H](C)C(=O)[C@H](C)[C@@H](O)[C@]1(C)O [erythromycin, reference compound] | – | – | – | – | – | – | – | – | – | chemically stable long enough to be resorbed | 30 | 10 | 55 | 50 | 100 | 85
